{"source": "PubChem BioAssay (NCI)", "system": "RXF-631 renal", "assay": "inhibition of tumour cell growth, NCI panel, 48 h", "note": "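48-hour exposure; five concentrations; linearly interpolated endpoints. TGI: total growth inhibition.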", "data": [{"molecule": "CN1CCN(c2cc(-c3cc4ccccc4o3)oc(=O)c2C#N)CC1", "values": [{"measurement": "TGI", "value": "> 100", "unit": "µM"}]}]}
